Earlier results on one compound are cited in patent US11136362B2, “Peptide modulators of specific calcineurin protein-protein interactions” (The Board of Trustees of the Leland Stanford Junior …, priority 2016, dated 2021).

In the series the target is T1, TRPV1 (Homo sapiens, UniProt Q8NER1).
T1 construct: host or cells: human trial subjects (endogenous)
Conditions: in vivo; cited from earlier work.

T1 sequence (Q8NER1 whole entry): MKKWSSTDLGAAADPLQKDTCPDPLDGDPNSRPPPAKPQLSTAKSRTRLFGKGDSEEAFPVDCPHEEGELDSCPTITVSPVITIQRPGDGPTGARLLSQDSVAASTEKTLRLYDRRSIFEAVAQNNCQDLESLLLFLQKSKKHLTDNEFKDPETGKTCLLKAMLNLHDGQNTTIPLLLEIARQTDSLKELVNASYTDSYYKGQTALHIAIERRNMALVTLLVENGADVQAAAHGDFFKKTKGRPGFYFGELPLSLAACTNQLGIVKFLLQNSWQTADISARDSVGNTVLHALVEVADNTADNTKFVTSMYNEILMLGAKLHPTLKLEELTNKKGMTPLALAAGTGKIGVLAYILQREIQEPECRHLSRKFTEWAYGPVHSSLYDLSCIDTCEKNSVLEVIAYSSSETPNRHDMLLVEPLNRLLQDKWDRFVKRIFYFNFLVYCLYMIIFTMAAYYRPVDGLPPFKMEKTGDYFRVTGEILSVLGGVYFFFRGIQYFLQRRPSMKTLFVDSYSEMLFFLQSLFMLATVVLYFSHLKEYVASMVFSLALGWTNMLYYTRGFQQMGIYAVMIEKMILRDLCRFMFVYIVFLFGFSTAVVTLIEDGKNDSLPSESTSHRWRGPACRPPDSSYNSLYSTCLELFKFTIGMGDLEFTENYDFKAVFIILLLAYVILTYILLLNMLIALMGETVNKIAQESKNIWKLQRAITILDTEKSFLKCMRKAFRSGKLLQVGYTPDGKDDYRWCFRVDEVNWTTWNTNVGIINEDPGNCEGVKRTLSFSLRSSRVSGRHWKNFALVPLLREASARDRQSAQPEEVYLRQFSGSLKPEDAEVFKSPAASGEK

Turning to `CC(=O)Nc1nc2c(Oc3cc(-c4ccc(C(F)(F)F)cc4)ncn3)cccc2s1` [AMG517], the “adverse effect in human clinical trials” value is “caused hyperthermia”.
